In brackets after ≈: the same amount, converted by molar mass. Where two headings read alike, the source gives them in different places. Marks after values point to notes of the source that are not given here.
Legend:
[1] = system: Candida glabrata ATCC 2001 (strain H); assay: Antifungal MIC determination (CLSI M27-A3, 96-well); type: cell-based; details: for MIC: Nakaseomyces glabratus; for MIC-0: compounds 1-4n and AmB, 48 h, RPMI 1640
How it was run: (§1)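 A modified CLSI M27-A3 protocol is used, with final compound levels from 12.5 to 0.02 μg/mL in two-fold steps. Cells are incubated at 5×10^3 CFU/mL in buffered RPMI 1640 at 35° C for 48 h.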

[2] = system: Candida krusei ATCC 6258 (strain I); assay: as above; type: cell-based; details: for MIC: Pichia kudriavzevii; for MIC-0: compounds 1-4n and AmB, 48 h, RPMI 1640
How it was run: as §1

[3] = system: Candida parapsilosis ATCC 22019 (strain J); assay: as above; type: cell-based; details: for MIC: Lodderomyces parapsilosis; for MIC-0: compounds 1-4n and AmB, 48 h, RPMI 1640
How it was run: as §1

[4] = system: Aspergillus flavus ATCC MYA-3631 (strain K); assay: Antifungal MIC determination, filamentous fungi spores; type: cell-based; details: all compounds; for MIC: Aspergillus flavus, read-out: MIC-0
How it was run: (§2)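 CLSI M27-A3 microdilution, modified; RPMI 1640/0.165 M MOPS pH 7.0; final drug 12.5-0.02 μg/mL (2-fold series), inoculum 5×10^3 CFU/mL; 48 h, 35° C. Aspergillus: spores from 3-5 day PDA cultures at 25° C, tested likewise.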

[5] = system: Aspergillus terreus ATCC MYA-3633 (strain M); assay: as above; type: cell-based; details: for MIC: Aspergillus terreus, read-out: MIC-0
How it was run: as §2

[6] = system: Candida albicans ATCC 10231 (strain A); details: azoles, previously reported (Shrestha 2015); cited from earlier work
[7] = system: C. albicans ATCC 64124 (strain B); details: azoles, previously reported (Shrestha 2015); cited from earlier work
[8] = system: C. albicans ATCC MYA-2876(S) (strain C); details: azoles, previously reported (Shrestha 2015); cited from earlier work
[9] = system: C. albicans ATCC 90819(R) (strain D); details: azoles, previously reported (Shrestha 2015); cited from earlier work
[10] = system: C. albicans ATCC MYA-2310(S) (strain E); details: azoles, previously reported (Shrestha 2015); cited from earlier work
[11] = system: C. albicans ATCC MYA-1237(R) (strain F); details: azoles, previously reported (Shrestha 2015); cited from earlier work
[12] = system: C. albicans ATCC MYA-1003(R) (strain G); details: azoles, previously reported (Shrestha 2015); cited from earlier work
[13] = system: Aspergillus nidulans ATCC 38163 (strain L); details: azoles, previously reported (Shrestha 2015); cited from earlier work
[14] = Solubility in the RPMI 1640 medium used for MIC determination; details: medium of MIC determination
[15] = system: C. albicans ATCC 64124 (strain B); assay: microbe, parasite or virus in culture; type: cell-based, Candida albicans; details: for MIC-0: strain B, compounds 1-4n and AmB, 48 h, RPMI 1640
How it was run: as §1

[16] = system: C. albicans ATCC 90819(R) (strain D); assay: microbe, parasite or virus in culture; type: cell-based, Candida albicans; details: for MIC-0: strain D, compounds 1-4n and AmB, 48 h, RPMI 1640
How it was run: as §1

[17] = system: C. albicans ATCC MYA-1003(R) (strain G); assay: microbe, parasite or virus in culture; type: cell-based, Candida albicans; details: for MIC-0: strain G, compounds 1-4n and AmB, 48 h, RPMI 1640
How it was run: as §1

[18] = system: C. albicans ATCC MYA-1237(R) (strain F); assay: microbe, parasite or virus in culture; type: cell-based, Candida albicans; details: for MIC-0: strain F, compounds 1-4n and AmB, 48 h, RPMI 1640
How it was run: as §1

[19] = system: C. albicans ATCC MYA-2310(S) (strain E); assay: Antifungal MIC determination (CLSI M27-A3, 96-well); type: cell-based, Candida albicans; details: for MIC-0: strain E, compounds 1-4n and AmB, 48 h, RPMI 1640
How it was run: as §1

[20] = system: C. albicans ATCC MYA-2876(S) (strain C); assay: as above; type: cell-based, Candida albicans; details: for MIC-0: strain C, compounds 1-4n and AmB, 48 h, RPMI 1640
How it was run: as §1

[21] = system: Candida albicans ATCC 10231 (strain A); assay: as above; type: cell-based; details: for MIC-0: strain A, compounds 1-4n and AmB, 48 h, RPMI 1640
How it was run: as §1

[22] = system: Aspergillus nidulans ATCC 38163 (strain L); assay: Antifungal MIC determination, filamentous fungi spores; type: cell-based; details: for MIC-0: strain L, spores
How it was run: as §2

[23] = system: Aspergillus strains (K-M); assay: Antifungal MIC, summary over Aspergillus strains; type: cell-based; details: spores
Description: Fungal MIC determination experiments were performed using untreated 96-well plates (Corning). Cells were counted either by using a hemocytometer (Hausser Scientific, Horsham, Pa., USA) or by measuring optical density at attenuance of 600 nm (OD600) by using a Genesys 20 spectrophotometer (Thermo Scientific, Waltham, Mass., USA). Spectrophotometric and colorimetric measurements in 96-well plates were performed using a SpectraMax M5 spectrometer (Molecular Devices, Sunnyvale, Calif., USA).
Yeast strains Candida albicans ATCC 10231 (strain A), C. albicans ATCC 64124 (strain B), and C. albicans ATCC MYA-2876(S) (strain C) were kindly provided by Dr. Jon Y. Takemoto (Utah State University, Logan, UT, USA). C. albicans ATCC MYA-90819(R) (strain D), C. albicans ATCC MYA-2310(S) (strain E), C. albicans ATCC 1237(R) (strain F), C. albicans ATCC MYA-1003(R) (strain G), Candida glabrata ATCC 2001 (strain H), Candida krusei ATCC 6258 (strain I), and Candida parapsilosis ATCC 22019 (strain J) were obtained from the American Type Culture Collection (ATCC, Manassas, Va., USA). […]
The MIC values against fungal strains were determined based on a previously published protocol. MIC values for ebsulfur (2a) analogues against fungal cells were evaluated in 96-well plates as described in the CLSI document M27-A3 with minor modifications. […]

[24] = system: C. albicans ATCC 64124 (strain B); type: cell-based, Candida albicans
Description: The efficiency of the compounds to kill C. albicans ATCC 64124 (strain B) was monitored using a previously published protocol. The cell suspensions were prepared to achieve an inoculum of approximately 1-4×10^5 CFU/mL in RPMI 1640 medium at 35° C. […] After fungal cell addition, at 0, 3, 6, 9, 12, and 24 h, the tubes were vortexed and 100 μL aliquots were removed from each solution, spread onto PDA plates, and incubated at 35° C. Colony counts were determined after 24 h of incubation. The experiments were performed in duplicate (FIG. 2).
Time-kill assays with ebsulfur (2a) and analogue 3a (FIG. 2) were performed to determine the rate of fungicidal activity of the compounds if the invention.

[25] = system: C. albicans ATCC 10231 (strain A); assay: ROS production assay (DCFH-DA); type: cell-based, Candida albicans; details: 1× and 2× MIC (H2O2 1 mM), 1-h treatment
Description: ROS production assay was performed as previously described with minor modifications. […] Once entering the cells, the DCFH-DA probe is first hydrolyzed to the non-fluorescent 2′,7′-dichlorodihydrofluorescein (DCFH) by cellular esterases. […] A colony of C. albicans ATCC 10231 (strain A) was used to inoculate 5 mL of PDB in a Falcon tube and grown overnight at 35° C. at 200 rpm.
Thus, whether the compounds of the invention would also induce ROS against C. albicans was studied. […] 2′,7′-dichlorodihydrofluorescin diacetate (DCFH-DA) was then used to detect and visualize ROS production (FIG. 5). As a positive control, cells were treated with H2O2, which is an inducer of hydroxyl radical formation.

[26] = ATCC2001, strain H, azoles, read-out: MIC-2
[27] = ATCC6258, strain I, azoles, read-out: MIC-2
[28] = ATCC22019, strain J, azoles, read-out: MIC-2
[29] = strain M, all compounds, spores
[30] = Candida albicans, read-out: MIC-2

CC[C@@H]([C@H](C)O)n1ncn(-c2ccc(N3CCN(c4ccc(OC[C@@H]5CO[C@@](Cn6cncn6)(c6ccc(F)cc6F)C5)cc4)CC3)cc2)c1=O [POS, posaconazole]
MIC [1, 26]: 0.12 µg/mL (≈ 0.171 µM) | MIC [2, 27]: 0.06 µg/mL (≈ 0.0856 µM) | MIC [3, 28]: < 0.03 µg/mL | MIC [4]: 0.24 µg/mL (≈ 0.342 µM) | MIC [5, 29]: 0.48 µg/mL (≈ 0.685 µM) | MIC-2 [6]: 0.5^a μg/mL | MIC-2 [7]: >62.5^a μg/mL | MIC-2 [8]: 7.8a μg/mL | MIC-2 [9]: 31.2^a μg/mL | MIC-2 [10]: 31.2^a μg/mL | MIC-2 [11]: 15.6^a μg/mL | MIC-2 [12]: 15.6^a μg/mL | MIC-0 [13]: 0.195^a μg/mL

O=c1c2ccccc2sn1-c1ccc2ccccc2n1 [Compound 2o]
solubility in the RPMI 1640 medium [14]: solubility issues

C[C@@H](c1ncncc1F)[C@](O)(Cn1cncn1)c1ccc(F)cc1F [VOR, voriconazole, reference compound]
MIC ([15]; Candida albicans, ATCC64124, read-out: MIC-2): > 31.2 µg/mL | MIC ([16]; Candida albicans, ATCC90819, read-out: MIC-2): 1.95 µg/mL (≈ 5.58 µM) | MIC [17, 30]: 7.8 µg/mL (≈ 22.3 µM) | MIC [18, 30]: 0.975 µg/mL (≈ 2.79 µM) | MIC [19, 30]: 1.95 µg/mL (≈ 5.58 µM) | MIC [20, 30]: 0.975 µg/mL (≈ 2.79 µM) | MIC ([21]; Candida albicans, ATCC10231, read-out: MIC-2): 7.8 µg/mL (≈ 22.3 µM) | MIC ([1]; ATCC2001, read-out: MIC-2): 0.06 µg/mL (≈ 0.172 µM) | MIC ([2]; ATCC6258, read-out: MIC-2): 0.12 µg/mL (≈ 0.344 µM) | MIC ([3]; ATCC22019, read-out: MIC-2): < 0.03 µg/mL | MIC ([22]; Aspergillus nidulans, ATCC38163, read-out: MIC-0): 0.03 µg/mL (≈ 0.0859 µM) | MIC [5]: 0.12 µg/mL (≈ 0.344 µM) | MIC against Aspergillus strains K-M, range [23]: 0.03 to 0.24 µg/mL

O=c1c2ccccc2[se]n1-c1ccccc1 [Compound 1, ebselen, reference compound]
MIC-0 [15]: 12.5 µg/mL (≈ 45.6 µM) | MIC-0 [16]: 1.56 µg/mL (≈ 5.69 µM) | MIC-0 [17]: 12.5 µg/mL (≈ 45.6 µM) | MIC-0 [18]: >12.5 µg/mL | MIC-0 [19]: 3.13 µg/mL (≈ 11.4 µM) | MIC-0 [20]: 12.5 µg/mL (≈ 45.6 µM) | MIC-0 [21]: 12.5 µg/mL (≈ 45.6 µM) | MIC-0 ([1]; strain H): 1.56 µg/mL (≈ 5.69 µM) | MIC-0 ([2]; strain I): 1.56 µg/mL (≈ 5.69 µM) | MIC-0 ([3]; strain J): 6.25 µg/mL (≈ 22.8 µM) | MIC-0 [4]: 6.25 µg/mL (≈ 22.8 µM) | MIC-0 [22]: 1.56 µg/mL (≈ 5.69 µM) | MIC-0 [5, 29]: 1.56 µg/mL (≈ 5.69 µM) | fungicidal or fungistatic effect ([24]; 1× MIC): potent fungicidal activity | time of complete fungal cell death ([24]; 1× MIC): 6 h | time from which completely fungicidal ([24]; 2× MIC): 3 h | ROS induction (DCFH-DA fluorescence) [25]: highly fluorescent

O=c1c2ccccc2sn1C1CCCCCCC1 [Compound 3n]
MIC-0 [15]: 3.13 µg/mL (≈ 12 µM) | MIC-0 [16]: 6.25 µg/mL (≈ 23.9 µM) | MIC-0 [17]: 6.25 µg/mL (≈ 23.9 µM) | MIC-0 [18]: 6.25 µg/mL (≈ 23.9 µM) | MIC-0 [19]: 6.25 µg/mL (≈ 23.9 µM) | MIC-0 [20]: 6.25 µg/mL (≈ 23.9 µM) | MIC-0 [21]: 3.13 µg/mL (≈ 12 µM) | MIC-0 ([1]; strain H): 3.13 µg/mL (≈ 12 µM) | MIC-0 ([2]; strain I): 0.39 µg/mL (≈ 1.49 µM) | MIC-0 ([3]; strain J): 3.13 µg/mL (≈ 12 µM) | MIC-0 [4]: ≤0.02 µg/mL | MIC-0 [22]: 0.05 µg/mL (≈ 0.191 µM) | MIC-0 [5, 29]: ≤0.02 µg/mL | MIC against Aspergillus strains K-M, range [23]: ≤0.02 to 0.05 µg/mL

OC(Cn1cncn1)(Cn1cncn1)c1ccc(F)cc1F [FLC, fluconazole]
MIC [1, 26]: > 31.2 µg/mL | MIC [2, 27]: > 31.2 µg/mL | MIC [3, 28]: 1.95 µg/mL (≈ 6.37 µM) | MIC [4]: 6.25 µg/mL (≈ 20.4 µM) | MIC-2 [6]: 62.5^a μg/mL | MIC-2 [7]: >125^a μg/mL | MIC-2 [8]: 15.6^a μg/mL | MIC-2 [9]: >125^a μg/mL | MIC-2 [10]: >125^a μg/mL | MIC-2 [11]: 62.5^a μg/mL | MIC-2 [12]: 62.5^a μg/mL | MIC-0 [13]: 6.25^a μg/mL

O=c1c2ccccc2sn1C12CC3CC(CC(C3)C1)C2 [Compound 3o]
solubility in the RPMI 1640 medium [14]: not soluble
